Test results: ChEMBL document CHEMBL1126395, “The synthesis of conformationally-restricted diacyl glycerol analogues” (1992)
Activity calls are given as the source filed them. No cut-off for these calls is given here.

Tests used:
[1] = system: HL-60; test: Compound was tested for the inhibition of the growth of HL60 cells at a concentration 10E-4 M; NS no significant affect is observed; type: functional, cell-based; conditions: Homo sapiens
[2] = molecular target: Protein kinase C (PKC) (Rattus norvegicus) (UniProt P05696+P68403+P09216+P63319+P09215+Q64617+Q9WTQ0+P09217); test: Antagonist activity against protein Kinase C; type: functional
[3] = system: HL-60; test: Compound was tested for the inhibition of the growth of HL60 cells at a concentration 10E-4 M; reduction of growth was observed; type: functional; conditions: Homo sapiens

Activity [2] | SMILES | Activity [1] | inhibition at 100 µM [3]
 | CCCCCCCOC(=O)O[C@H]1OC(=O)C[C@@H]1O | inactive | 
inactive | CCCCCCCOC(=O)O[C@H]1CC(=O)O[C@@H]1CO |  | 20%
inactive | CCCCCCCOC(=O)O[C@@H]1[C@@H](CO)OC(=O)[C@@H]1OC(=O)OCCCCCCC |  | 
inactive | CCCCCCCOC(=O)O[C@H]1OC(=O)[C@H](O)[C@@H]1OC(=O)OCCCCCCC |  | 
inactive | CCCCCCCOC(=O)O[C@H]1OC(=O)[C@H](O)[C@@H]1O |  | 
